Experimental data taken from patent publication US7608716B2, “Pyrazolonaphthyridine derivative” (Aska Pharmaceutical Co., Ltd., priority 2002, dated 2009).

Experiments:
[1] = tested on: actively sensitized guinea pigs; test: Inhibition of antigen-induced immediate asthmatic response (airway resistance, Konzett-Rossler); type: in vivo, Hartley guinea pigs; conditions: Cavia porcellus, oral, 60 minutes prior to antigen-challenge, reduction of increase in airway resistance, read-out: Inhibition of Asthmatic response ED50: mg/kg orally
Procedure: Male Hartley outbred guinea pigs were sensitized by administering intraperitoneally physiological saline (0.5 ml) containing ovalbumin (1 mg, antigen) and 5×10^9 inactivated Bordetella pertussis dead cells (adjuvant). Eleven to thirteen days after the first sensitization, 0.05 ml of an ovalbumin solution (1 mg/ml) (ovalbumin is dissolved in physiological saline) was administered to the lateroabdominal region of each guinea pig intracutaneously. An establishment of sensitization was checked relying on cutaneous reaction. Only guinea pigs wherein significant reddening responses occurred 5 to 10 minutes later were employed in the next measurement test for airway resistance.
The guinea pigs (3 animals per group) actively sensitized in the above step (1) were employed to measure for their airway pressure according to Konzett-Rossler method (Arch. Exp. Path. Pharmakol., 195, 71 (1940)).
Thirteen days after the final sensitization, guinea pigs fasted overnight, and were on the next day anesthetized with a pentobarbital solution (30 mg/1.2 ml/kg, dissolved in physiological saline, intraperitoneal administration). After the guinea pigs were fixed in a supine position, their trachea was incised followed by insertion with one port of a 4-port cannula. Among the remaining 3 ports, 2 ports were connected to an artificial respirator (Model 683, Harvard). The animals were ventilated with 10 ml/kg of air per ventilation at a rate of 60 beats/min via the artificial respirator from the cannula. One port remainder was connected to a respiratory amplifier (AR-601G, Nihon Kohden, Japan) via an airflow resistance tube (TV-241T, Nihon Kohden, Japan) and a differential pressure transducer (TP-602T, Nihon Kohden, Japan) connected with a control box (RY-111S, Nihon Kohden, Japan). From a catheter inserted into a left carotid artery, blood pressures were monitored with a blood pressure measurement unit (AP641G, NEC Corp., Japan) via a blood pressure transducer (TP-300T, Nihon Kohden, Japan), and heart rates were recorded on a thermal recorder (WT-685G, Nihon Kohden, Japan), relying on blood pressure pulse waves after being led to a cardiograph unit (AT601G, Nihon Kohden, Japan).
After airway pressure became stable, an ovalbumin solution (1 mg/ml, dissolved in physiological saline) was administered at a dose of 1 ml/kg via a tube with which the right jugular vein of guinea pigs was cannulated.
Each test compound was suspended in 0.5% CMC-Na solution and administered orally with an oral sound at a dose of 0.03 to 20 mg/2 ml/kg 60 minutes prior to the antigen-challenge. Control groups received only 0.5% CMC-Na solution in an equivalent amount. The pentobarbital-anesthetization and tracheal incision were conducted 30 minutes prior to the antigen-challenge.
Each percent reduction of increase in airway resistance (each test compound-administered group versus control group) was calculated according to the equation given below. ED50 was obtained by Probit method.

[2] = tested on: T1, PDE IV isozymes separated from U937 culture cells; test: PDE IV inhibition ([3H]-cAMP hydrolysis); type: biochemical; conditions: cAMP 1 μM substrate, 30° C., 20 minutes
T1 construct: PDE IV isozymes as used herein were separated from U937 culture cells by using an anion exchange chromatography
Procedure: PDE IV isozymes as used herein were separated from U937 culture cells by using an anion exchange chromatography. Type IV PDE isozyme was admixed with ethylene glycol (EG) to adjust the final EG concentration to 30%, then stored at −20° C. and diluted when used. The enzymatic activity for PDE IV was measured using cAMP as a substrate.
Each test compound was dissolved in DMSO to adjust the final concentration to 1% (2.5 μl/tube).
Incubation Buffer Solution (pH7.5):
• Tris-HCl (50 mM), magnesium chloride (6 mM), dithiothreitol (2.5 mM), 5-nucleotidase (4 μg/ml), bovine serum albumin (0.23 mg/ml), and cAMP (1 μM).
A mixture of the aforementioned test compound solution and the buffer solution was incubated at 30° C. for 20 minutes. The reaction was quenched by admixing with 1 ml of anion exchange resin slurry (AG1-X8, 200-400 meshes, chloride form; Bio-Rad) to absorb unreacted substrates. After the reaction stopped, the mixture was centrifuged at 800×g for 10 minutes, and the resulting supernatant was collected with vials in 250 μl aliquots. To each vial was added 5 ml of ACS-II (scintillator, Amersham). The radioactivity was measured with a liquid scintillator counter for [^3H]-adenosine and set as the PDE IV activity.

TNF-α production = test: Inhibition of TNF-α production in galactosamine- and LPS-stimulation; type: in vivo; conditions: Mus musculus; C3H/HeN mice, oral, 1 hour before galactosamine/LPS i.v.; serum TNF-α by ELISA 1 hour later; read-out: Inhibition of TNF-α production ED50: mg/kg orally
Procedure: A suspension of each test compound in 0.5% CMC-Na solution was administered orally to C3H/HeN mice at a dose of 0.10 to 10 mg/kg. One hour later, the animals received intravenously galactosamine at a dose of 800 mg/kg and LPS at a dose 5 μg/kg to raise the induction of TNF-α production. One hour later after the galactosamine- and LPS-administration, amounts of TNF-α in serum samples were measured by ELISA, and ED50 was obtained. Roflumilast and SB207499 were used for the reference compounds in this assay.

Structure (SMILES)	IC50 [2] [µM]	further results
COc1ccc(C2CNC(=O)C2)cc1OC1CCCC1 (single isomer, unassigned; (-)) [Rolipram, (−)-4-[3-(cyclopentyloxy)-4-methoxyphenyl]-2-pyrrolidinone]		ED50 [1]: 0.51 mg/kg
O=c1c2c(Cc3ccccc3[N+](=O)[O-])n[nH]c2c2cccnc2n1-c1ccccc1 [Example No. 26, 3-(2-nitrobenzyl)-5-phenyl-1H-pyrazolo[4,3-c][1,8]naphthyridin-4 (5H)-one]	0.02	
CCOC(=O)Cc1ccc(Cc2n[nH]c3c2c(=O)n(-c2ccccc2)c2ncccc32)cc1 [Example No. 32, 3-(4-ethoxycarbonylmethylbenzyl)-5-phenyl-1H-pyrazolo[4,3-c][1,8]naphthyridin-4 (5H)-one]	0.028	
COc1ccc(OC)c(Cc2n[nH]c3c2c(=O)n(-c2ccccc2)c2ncccc32)c1 [Example No. 27, 3-(2,5-dimethoxybenzyl)-5-phenyl-1H-pyrazolo[4,3-c][1,8]naphthyridin-4 (5H)-one]	0.021	
O=c1c2c(CCc3cc[n+]([O-])cc3)n[nH]c2c2cccnc2n1-c1ccccc1 [Example No. 5, 5-phenyl-3-[2-(1-oxypyridin-4-yl)ethyl]-1H-pyrazolo[4,3-c][1,8]-naphthyridin-4 (5H)-one]	0.067	melting point: 285 °C (dec.)
O=C(O)c1ccc(CCc2n[nH]c3c2c(=O)n(-c2ccccc2)c2ncccc32)cc1 [Example No. 14, 3-[2-(4-carboxyphenyl)ethyl]-5-phenyl-1H-pyrazolo[4,3-c][1,8]naphthyridin-4 (5H)-one]	0.057	
COc1ccc([C@]2(C#N)CC[C@@H](C(=O)O)CC2)cc1OC1CCCC1 [SB207499, cis-4-cyano-4-[3-(cyclopentyloxy)-4-methoxyphenyl]cyclohexane-1-carboxylic acid, reference compound]		ED50 [1]: > 20 mg/kg; ED50 (TNF-α production): 3.3 mg/kg
Nc1ccc(Cc2n[nH]c3c2c(=O)n(-c2ccccc2)c2ncccc32)cc1 [Example No. 43, 3-(4-aminobenzyl)-5-phenyl-1H-pyrazolo[4,3-c][1,8]-naphthyridin-4 (5H)-one]	0.086	
COc1ccc(Cc2n[nH]c3c2c(=O)n(-c2ccccc2)c2ncccc32)c(OC)c1 [Example No. 30, 3-(2,4-dimethoxybenzyl)-5-phenyl-1H-pyrazolo[4,3-c][1,8]naphthyridin-4 (5H)-one]	0.049	
N#Cc1cccc(-n2c(=O)c3c(Cc4ccccc4)n[nH]c3c3cccnc32)c1 [Example No. 53, 3-benzyl-5-(3-cyanophenyl)-1H-pyrazolo[4,3-c][1,8]-naphthyridin-4 (5H)-one]	0.028	

Further lines, with some results ahead:

IC50 [2] [µM]	Structure (SMILES)	further results
0.025	O=c1c2c(CCc3ccncc3)n[nH]c2c2cccnc2n1-c1cccc([N+](=O)[O-])c1 [Example No. 6, 5-(3-nitrophenyl)-3-[2-(pyridin-4-yl)ethyl]-1H-pyrazolo[4,3-c][1,8]naphthyridin-4 (5H)-one]	melting point: 161 to 165 °C
0.088	COc1ccc(Cc2n[nH]c3c2c(=O)n(-c2ccccc2)c2ncccc32)cc1 [Example No. 21, 3-(4-methoxybenzyl)-5-phenyl-1H-pyrazolo[4,3-c][1,8]naphthyridin-4 (5H)-one]	
0.031	Nc1ccc(CCc2n[nH]c3c2c(=O)n(-c2ccccc2)c2ncccc32)cc1 [Example No. 13, 3-[2-(4-aminophenyl)ethyl]-5-phenyl-1H-pyrazolo[4,3-c][1,8]naphthyridin-4 (5H)-one]	
0.089	O=c1c2c(Cc3ccc(O)cc3)n[nH]c2c2cccnc2n1-c1ccccc1 [Example No. 41, 3-(4-hydroxybenzyl)-5-phenyl-1H-pyrazolo[4,3-c][1,8]-naphthyridin-4 (5H)-one]	melting point: 316 to 317 °C
0.032	O=C(O)Cc1ccc(Cc2n[nH]c3c2c(=O)n(-c2ccccc2)c2ncccc32)cc1 [Example No. 46, 3-(4-carboxymethylbenzyl)-5-phenyl-1H-pyrazolo[4,3-c][1,8]naphthyridin-4 (5H)-one]	melting point: 297 to 300 °C
0.035	O=c1c2c(Cc3ccccc3)n[nH]c2c2cccnc2n1-c1cccc(F)c1 [Example No. 58, 3-benzyl-5-(3-fluorophenyl)-1H-pyrazolo[4,3-c][1,8]-naphthyridin-4 (5H)-one]	
